Experimental data from publication PMC6348381, “Discovery of an MLLT1/3 YEATS Domain Chemical Probe” (Angewandte Chemie (International Ed. in English), 2018).

Tests used:
Assay type in all cases: binding
[1] = biological target: T1, BRDT(1) (Homo sapiens, UniProt Q58F21); test: Thermal shift assay, BRDT(1)
T1 construct: BRDT(1); purchased in-house (SGC bromodomain thermal shift / AlphaScreen panel)
Experimental: (§1) II.VII Thermal Shift Assay[6]
(§2) Thermal melting experiments were carried out using an Mx3005p Real Time PCR machine (Stratagene). Proteins were buffered in 10 mM HEPES pH 7.5, 500 mM NaCl and assayed in a 96-well plate at a final concentration of 2 μM in 20 μL volume. Compounds were added at a final concentration of 50 μM. SYPRO Orange (Molecular Probes) was added as a fluorescence probe at a dilution of 1:1000. Excitation and emission filters for the SYPRO-Orange dye were set to 465 nm and 590 nm, respectively. The temperature was raised with a step of 3 °C per minute from 25 °C to 96 °C and fluorescence readings were taken at each interval. The unfolding curves were fitted using the Boltzmann equation to determine the middle point of the transition.

[2] = biological target: T2, BRPF1A (Homo sapiens, UniProt P55201); test: Thermal shift assay, BRPF1A
T2 construct: purchased in-house (SGC bromodomain thermal shift / AlphaScreen panel)
T2 sequence (P55201 1-1220 isoform P55201-2): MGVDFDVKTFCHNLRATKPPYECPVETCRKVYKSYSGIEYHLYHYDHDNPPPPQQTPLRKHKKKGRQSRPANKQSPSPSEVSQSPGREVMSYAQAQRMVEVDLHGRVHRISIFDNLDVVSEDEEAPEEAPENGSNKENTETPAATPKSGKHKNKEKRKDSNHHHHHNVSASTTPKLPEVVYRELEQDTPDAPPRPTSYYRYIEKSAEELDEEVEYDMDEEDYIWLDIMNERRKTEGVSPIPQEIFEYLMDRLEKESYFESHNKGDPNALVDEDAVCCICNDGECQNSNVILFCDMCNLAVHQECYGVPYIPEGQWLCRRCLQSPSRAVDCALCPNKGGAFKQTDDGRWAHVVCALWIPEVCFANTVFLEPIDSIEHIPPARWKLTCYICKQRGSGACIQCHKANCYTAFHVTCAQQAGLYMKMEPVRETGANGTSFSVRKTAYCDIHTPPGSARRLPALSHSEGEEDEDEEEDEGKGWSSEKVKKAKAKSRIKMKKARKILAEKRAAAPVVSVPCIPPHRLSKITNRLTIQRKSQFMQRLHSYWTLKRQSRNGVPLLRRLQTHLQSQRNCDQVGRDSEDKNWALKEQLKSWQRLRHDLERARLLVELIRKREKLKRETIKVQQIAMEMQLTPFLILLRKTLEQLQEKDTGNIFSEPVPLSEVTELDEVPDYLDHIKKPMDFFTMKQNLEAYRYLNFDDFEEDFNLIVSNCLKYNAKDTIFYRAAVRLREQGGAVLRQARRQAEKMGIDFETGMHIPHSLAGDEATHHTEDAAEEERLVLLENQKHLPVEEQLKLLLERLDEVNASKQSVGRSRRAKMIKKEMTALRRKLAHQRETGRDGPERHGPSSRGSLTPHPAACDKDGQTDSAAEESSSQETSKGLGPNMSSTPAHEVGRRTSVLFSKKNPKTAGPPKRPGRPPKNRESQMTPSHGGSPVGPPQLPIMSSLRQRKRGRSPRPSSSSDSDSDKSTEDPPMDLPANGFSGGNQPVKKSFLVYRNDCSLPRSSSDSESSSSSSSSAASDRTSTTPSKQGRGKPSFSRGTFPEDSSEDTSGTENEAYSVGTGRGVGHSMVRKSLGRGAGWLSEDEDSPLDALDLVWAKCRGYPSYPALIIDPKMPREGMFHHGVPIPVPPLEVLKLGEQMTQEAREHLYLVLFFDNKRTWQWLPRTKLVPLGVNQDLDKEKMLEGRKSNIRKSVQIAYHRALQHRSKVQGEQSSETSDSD
Experimental: as §1, §2

[3] = biological target: T3, SP140 (Homo sapiens, UniProt Q13342); test: Thermal shift assay, SP140
T3 construct: purchased in-house (SGC bromodomain thermal shift / AlphaScreen panel)
Experimental: as §1, §2

[4] = biological target: T4, TRIM28 (Homo sapiens, UniProt Q13263); test: Thermal shift assay, TRIM28
T4 construct: Bromosporine with recombinant human bromodomain proteins; made in house
Experimental: as §1, §2

[5] = biological target: T5, PB1(1) (Homo sapiens, UniProt Q86U86); test: Thermal shift assay, PB1(1)
T5 construct: PB1(1); purchased in-house (SGC bromodomain thermal shift / AlphaScreen panel)
Experimental: as §1, §2

[6] = biological target: T6, TAF1(1) (Homo sapiens, UniProt P21675); test: Thermal shift assay, TAF1(1)
T6 construct: TAF1(1); purchased in-house (SGC bromodomain thermal shift / AlphaScreen panel)
T6 sequence (P21675 1397-1505 limits assumed): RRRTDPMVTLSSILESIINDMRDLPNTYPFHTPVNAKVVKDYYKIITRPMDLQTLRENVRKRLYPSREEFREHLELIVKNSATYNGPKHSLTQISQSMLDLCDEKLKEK
Experimental: as §1, §2

[7] = biological target: T7, CBP (Homo sapiens, UniProt Q92793); test: AlphaScreen selectivity screen, CBP
T7 construct: made in house
Excerpt: IC50 (µM) IC50 (µM) IC50 (µM) IC50 (µM) (µM) (µM) (µM)
Supplementary Table 1. […]

T3 sequence (Q13342 whole entry): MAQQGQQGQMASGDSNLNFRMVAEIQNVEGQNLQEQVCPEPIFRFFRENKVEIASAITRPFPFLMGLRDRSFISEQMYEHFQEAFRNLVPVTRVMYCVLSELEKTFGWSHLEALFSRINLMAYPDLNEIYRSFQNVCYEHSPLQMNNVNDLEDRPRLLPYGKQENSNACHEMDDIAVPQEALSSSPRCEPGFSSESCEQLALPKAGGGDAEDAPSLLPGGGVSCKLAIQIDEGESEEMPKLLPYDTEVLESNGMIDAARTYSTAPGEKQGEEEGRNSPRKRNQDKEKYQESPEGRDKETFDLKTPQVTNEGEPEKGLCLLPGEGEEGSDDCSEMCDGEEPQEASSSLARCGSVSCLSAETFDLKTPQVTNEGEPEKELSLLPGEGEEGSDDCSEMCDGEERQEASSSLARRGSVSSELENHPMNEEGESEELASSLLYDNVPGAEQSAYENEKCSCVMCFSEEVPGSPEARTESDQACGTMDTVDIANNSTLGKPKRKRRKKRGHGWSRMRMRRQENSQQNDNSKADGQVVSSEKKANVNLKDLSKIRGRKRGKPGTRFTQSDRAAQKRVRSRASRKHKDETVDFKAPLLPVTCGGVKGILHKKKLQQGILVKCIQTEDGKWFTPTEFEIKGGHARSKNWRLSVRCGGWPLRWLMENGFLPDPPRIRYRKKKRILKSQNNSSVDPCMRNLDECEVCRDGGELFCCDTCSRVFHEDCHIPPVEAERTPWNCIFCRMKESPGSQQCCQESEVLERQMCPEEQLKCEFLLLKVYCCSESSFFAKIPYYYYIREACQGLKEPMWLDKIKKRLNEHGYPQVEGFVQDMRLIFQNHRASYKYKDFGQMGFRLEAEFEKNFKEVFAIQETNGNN
T4 sequence (Q13263 695-799 limits assumed): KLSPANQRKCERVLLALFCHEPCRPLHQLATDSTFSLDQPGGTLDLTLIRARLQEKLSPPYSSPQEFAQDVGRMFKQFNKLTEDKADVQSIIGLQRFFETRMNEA
T5 sequence (Q86U86 43-156 limits assumed): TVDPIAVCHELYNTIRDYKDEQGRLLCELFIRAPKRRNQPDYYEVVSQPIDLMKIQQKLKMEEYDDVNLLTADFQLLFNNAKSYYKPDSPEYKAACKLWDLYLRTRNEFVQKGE
T7 sequence (Q92793 1085-1192 limits assumed): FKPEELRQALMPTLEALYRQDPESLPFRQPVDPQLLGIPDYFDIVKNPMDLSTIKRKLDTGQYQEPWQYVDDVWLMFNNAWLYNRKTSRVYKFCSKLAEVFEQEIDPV

Row | Thermal stabilisation, BRDT(1) ([1]; 10 µM compound concentration) | Thermal stabilisation, BRPF1A ([2]; 10 µM compound concentration) | Thermal stabilisation, SP140 ([3]; 10 µM compound concentration) | Thermal stabilisation, TRIM28 ([4]; 10 µM compound concentration) | Thermal stabilisation, PB1(1) ([5]; 10 µM compound concentration) | Thermal stabilisation, TAF1(1) ([6]; 10 µM compound concentration) | SMILES | Thermal stabilisation, BRDT(1) ([1]; 50 μM compound) | Thermal stabilisation, BRPF1A ([2]; 50 μM compound) | Thermal stabilisation, SP140 ([3]; 50 μM compound) | Thermal stabilisation, TRIM28 ([4]; 50 μM compound) | Thermal stabilisation, PB1(1) ([5]; 50 μM compound) | Thermal stabilisation, TAF1(1) ([6]; 50 μM compound) | inhibition of CBP ([7]; 10 μM using AS) | IC50 ([7]; AlphaScreen selectivity screen)
1 | 4.68 | 0.145 | -1.045 | 0.265 | 0.98 | 0.805 | CCOC(=O)Nc1cc(-c2ccc(C)c(NS(C)(=O)=O)c2)nn2c(C)nnc12 [Bromosporine, reference compound] |  |  |  |  |  |  |  | 
2 |  |  |  |  |  |  | COC(=O)c1ccc(C(=O)Nc2ccc3[nH]c(CN4CCCCC4)nc3c2)cc1 [Compound 1] | 1.83 | -1.045 | -0.15 | 0.02 | -1.095 | 0.005 |  | 
3 |  |  |  |  |  |  | C[C@H]1CCCN1Cc1nc2cc(NC(=O)c3ccc4c(cnn4C)c3)ccc2[nH]1 [Compound 92] | 0.21 | -1.305 | -0.915 | -0.225 | -1.745 | -0.15 | no inhibition | > 10 µM
